Converted amounts (≈) assume the structure as drawn. Peptide text beside a SMILES is read from it. * marks the point of attachment. Stearoyl = CCCCCCCCCCCCCCCCCC(=O)*; Palmitoyl = CCCCCCCCCCCCCCCC(=O)*; Myristoyl = CCCCCCCCCCCCCC(=O)*; Lauroyl = CCCCCCCCCCCC(=O)*; Decanoyl = CCCCCCCCCC(=O)*; Octanoyl = CCCCCCCC(=O)*

Series [1] concerns Acinetobacter bohemicus (DSM 100419). The series is described as follows: Minimal bactericidal concentration (MBC). The series is classed as cell-based. The conditions noted are these: Table S2, n=3; unit inferred; lowest concentration killing 99.9% of the inoculum; agar 24 h, 30 ± 1 °C. As for the experimental part:
(§1) Minimal bactericidal concentrations (MBCs) were determined by pipetting 3 µL of each broth dilution solution without visible growth onto a new agar plate. The agar plates were incubated at 37 ± 1 °C (for A. bohemicus: 30 ± 1 °C) for 24 h and were again analyzed with respect to bacterial growth. MBC is defined as the lowest concentration killing 99.9% of the inoculum.

Series [2] shares this test system. The series is described as follows: Minimal inhibitory concentration (MIC), broth microdilution. The series is classed as cell-based. Also on record: key to MIC value: MIC in μg/mL (lowest concentration without visible growth). The conditions noted are these: 30 ± 1 °C; for MIC value: Table S2, n=3, no unit given (main text uses µg/mL); for MIC: broth microdilution, cation-adjusted MHB II, 5 × 10^5 cfu/mL, read after 18 to 20 h, n = 3. As for the experimental part:
(§2) Minimal inhibitory concentrations (MICs) were determined against Gram-positive Enterococcus faecium vanA (UL 602570*, clinical isolate from Institute for Medical Microbiology and Hygiene, Heidelberg University Hospital, Heidelberg, Germany), Staphylococcus aureus (ATCC 25923), Rothia kristinae (DSM 20032), and Gram-negative Acinetobacter bohemicus (DSM 100419) (all obtained from the Department of Infectious Diseases, Medical Microbiology and Hygiene, Heidelberg University, Heidelberg, Germany) in a 96-well polypropylene plate (650261 Greiner Bio-One GmbH, Frickenhausen, Germany) according to European Committee on Antimicrobial Susceptibility Testing (EUCAST) and The Clinical & Laboratory Standards Institute (CLSI) guidelines. Briefly, the stock solutions of the peptide conjugates in water were adjusted to a concentration of 1.28 mg/mL. Starting with the highest concentration of 64 μg/mL in 96-well polypropylene plates, dilution series in cation-adjusted Mueller–Hinton broth (MHB II; Sigma Aldrich, Steinheim, Germany) were performed, resulting in the lowest concentration of 0.125 μg/mL. A logarithmic growing bacterial culture was adjusted to a McFarland corresponding to 1 × 10^8 cfu/mL using a McFarland counter (DensiCHEK® plus, bioMerieux, Marcy-l’Étoile, France). Finally, a bacterial suspension of 1 × 10^6 cfu/mL (further diluted in MHB II) was added to each peptide-conjugate concentration. Thus, the final bacterial concentration in each well was 5 × 10^5 cfu/mL. The bacteria were incubated at 37 ± 1 °C (for A. bohemicus: 30 ± 1 °C) overnight and the bacterial growth was analyzed after 18 to 20 h. The MIC was defined as the lowest concentration of substance without any visible growth. Vancomycin and colistin sulfate were purchased from Sigma-Aldrich Chemie GmbH, München, Germany and Carl Roth GmbH, Karlsruhe, Germany.
On the technique in general: In broth dilution the organism is exposed to a series of concentrations in liquid medium.

For series [3], the system named is Staphylococcus aureus (ATCC 25923). The series is described as above. The format is cell-based. The conditions noted are these: cation-adjusted MHB II, 5 × 10^5 cfu/mL, 37 ± 1 °C, read after 18 to 20 h, n = 3. On the procedure: as §2
Series [4] relates to Rothia kristinae (DSM 20032). Briefly: Minimal bactericidal concentration (MBC). The series is classed as cell-based. The conditions noted are these: Table 3 of supplement, n=3; unit inferred; lowest concentration killing 99.9% of the inoculum; agar 24 h, 37 ± 1 °C. As for the experimental part:
as §1

Series [5] deals with Rothia kristinae (DSM 20032). The series is described as follows: Minimal inhibitory concentration (MIC), broth microdilution. The series is classed as cell-based. The note with it: Table 3 of supplement, n=3; unit inferred; 37 ± 1 °C. On the procedure:
as §2

The test system of series [6] is Enterococcus faecium (UL602570*, clinical isolate, vanA-resistant). Described as above. The series is classed as cell-based. The note with it: cation-adjusted MHB II, 5 × 10^5 cfu/mL, 37 ± 1 °C, read after 18 to 20 h, n = 3. On the procedure:
as §2

For series [7] the following is noted: rat, in vivo, iv.
Description: For this purpose, the tyrosine residues of the peptides were radiolabeled with ^125I (Hartmann Analytic GmbH, Braunschweig, Germany) using the chloramine-T method [28]. Free ^125I was separated by preparative HPLC as previously described by Schieck et al. [22]. Approximately 2 to 4 MBq of the radiolabeled peptides was injected intravenously into the tail vein and images were recorded immediately post injection and after 1 h, 2 h, 3 h, 5 h, and 24 h. Scintigraphical images were obtained by using a γ-camera (Gamma Imager, Biospace Lab, Paris, France).
In series [8] the test system is Rothia kristinae (DSM 20032). Briefly: Time-kill studies. The format is cell-based. On the procedure: Time–kill studies were performed in accordance with CLSI guidelines. Therefore, Rothia kristinae DSM 20032 was adjusted to a concentration of 1 x 10^8 cfu/mL and further diluted to 1 × 10^6 cfu/mL in cation-adjusted MHB II. According to the previous determined MIC values of Pep19-4LF, C11-Pep19-4LF, and bacitracin (positive control) (Sigma Aldrich Chemie GmbH, München, Germany), samples were taken for 4 × MIC, 2 × MIC, 1 × MIC, and 0.5 × MIC after 30 min, 1 h, 2 h, 4 h, and 8 h. These samples were diluted in sterile saline and 10 µL of each sample was loaded onto agar plates. A bacterial suspension of 1 × 10^6 cfu/mL served as a growth control. Incubation occurred at 37 ± 1 °C and all counted colonies were recalculated to the colony number in the original inoculum.

In series [1], `CCCCCCCC(=O)NCC(=O)N[C@@H](CCCCN)C(=O)N[C@@H](CCCCN)C(=O)N[C@@H](Cc1ccc(O)cc1)C(=O)N[C@@H](CCCNC(=N)N)C(=O)N[C@@H](CCCNC(=N)N)C(=O)N[C@@H](Cc1ccccc1)C(=O)N[C@@H](CCCNC(=N)N)C(=O)N[C@@H](Cc1c[nH]c2ccccc12)C(=O)N[C@@H](CCCCN)C(=O)N[C@@H](Cc1ccccc1)C(=O)N[C@@H](CCCCN)C(=O)NCC(=O)N[C@@H](CCCCN)C(N)=O` [C8-Pep19-short] (Octanoyl-GKKYRRFRWKFKGK-NH2) gave an MBC value of 8 µg/mL (≈ 3.98 µM). The MIC value in series [2] is on record as 8.
For `CCCCCCCCCC(=O)NCC(=O)N[C@@H](CCCCN)C(=O)N[C@@H](CCCCN)C(=O)N[C@@H](Cc1ccc(O)cc1)C(=O)N[C@@H](CCCNC(=N)N)C(=O)N[C@@H](CCCNC(=N)N)C(=O)N[C@@H](Cc1ccccc1)C(=O)N[C@@H](CCCNC(=N)N)C(=O)N[C@@H](Cc1c[nH]c2ccccc12)C(=O)N[C@@H](CCCCN)C(=O)N[C@@H](Cc1ccccc1)C(=O)N[C@@H](CCCCN)C(=O)NCC(=O)N[C@@H](CCCCN)C(N)=O` [C10-Pep19-short] (Decanoyl-GKKYRRFRWKFKGK-NH2) the same measures were 4 µg/mL (≈ 1.96 µM) and 4.
For `CCCCCCCCCCCC(=O)NCC(=O)N[C@@H](CCCCN)C(=O)N[C@@H](CCCCN)C(=O)N[C@@H](Cc1ccc(O)cc1)C(=O)N[C@@H](CCCNC(=N)N)C(=O)N[C@@H](CCCNC(=N)N)C(=O)N[C@@H](Cc1ccccc1)C(=O)N[C@@H](CCCNC(=N)N)C(=O)N[C@@H](Cc1c[nH]c2ccccc12)C(=O)N[C@@H](CCCCN)C(=O)N[C@@H](Cc1ccccc1)C(=O)N[C@@H](CCCCN)C(=O)NCC(=O)N[C@@H](CCCCN)C(N)=O` [C12-Pep19-short] (Lauroyl-GKKYRRFRWKFKGK-NH2) the same measures were 4 µg/mL (≈ 1.94 µM) and 4.
Taken in the same sequence, the figures for `CCCCCCCCCCCCCC(=O)NCC(=O)N[C@@H](CCCCN)C(=O)N[C@@H](CCCCN)C(=O)N[C@@H](Cc1ccc(O)cc1)C(=O)N[C@@H](CCCNC(=N)N)C(=O)N[C@@H](CCCNC(=N)N)C(=O)N[C@@H](Cc1ccccc1)C(=O)N[C@@H](CCCNC(=N)N)C(=O)N[C@@H](Cc1c[nH]c2ccccc12)C(=O)N[C@@H](CCCCN)C(=O)N[C@@H](Cc1ccccc1)C(=O)N[C@@H](CCCCN)C(=O)NCC(=O)N[C@@H](CCCCN)C(N)=O` [C14-Pep19-short] (Myristoyl-GKKYRRFRWKFKGK-NH2) were 8 µg/mL (≈ 3.82 µM) and 8.
`CCCCCCCCCCCCCCCC(=O)NCC(=O)N[C@@H](CCCCN)C(=O)N[C@@H](CCCCN)C(=O)N[C@@H](Cc1ccc(O)cc1)C(=O)N[C@@H](CCCNC(=N)N)C(=O)N[C@@H](CCCNC(=N)N)C(=O)N[C@@H](Cc1ccccc1)C(=O)N[C@@H](CCCNC(=N)N)C(=O)N[C@@H](Cc1c[nH]c2ccccc12)C(=O)N[C@@H](CCCCN)C(=O)N[C@@H](Cc1ccccc1)C(=O)N[C@@H](CCCCN)C(=O)NCC(=O)N[C@@H](CCCCN)C(N)=O` [C16-Pep19-short] (Palmitoyl-GKKYRRFRWKFKGK-NH2) had an MBC value in series [1] of over 64 µg/mL. Further, in series [2], the MIC value is reported as over 64. Also, the MIC entry in series [2] and in series [3] was “higher MIC values” each time.
With `CCCCCCCCCCCCCCCCCC(=O)NCC(=O)N[C@@H](CCCCN)C(=O)N[C@@H](CCCCN)C(=O)N[C@@H](Cc1ccc(O)cc1)C(=O)N[C@@H](CCCNC(=N)N)C(=O)N[C@@H](CCCNC(=N)N)C(=O)N[C@@H](Cc1ccccc1)C(=O)N[C@@H](CCCNC(=N)N)C(=O)N[C@@H](Cc1c[nH]c2ccccc12)C(=O)N[C@@H](CCCCN)C(=O)N[C@@H](Cc1ccccc1)C(=O)N[C@@H](CCCCN)C(=O)NCC(=O)N[C@@H](CCCCN)C(N)=O` [C18-Pep19-short] (Stearoyl-GKKYRRFRWKFKGK-NH2), the MBC value in series [1] and in series [4] was over 64 µg/mL throughout. Further, the MIC value was over 64 in series [2] and over 64 µg/mL in series [5]. Besides, the MIC entry in series [2] and in series [3] was “higher MIC values” in each case.
In turn, `N=C(N)NCCC[C@H](NC(=O)[C@H](Cc1ccc(O)cc1)NC(=O)[C@H](CCCCN)NC(=O)[C@H](CCCCN)NC(=O)[C@H](CS)NC(=O)CN)C(=O)N[C@@H](CCCNC(=N)N)C(=O)N[C@@H](Cc1ccccc1)C(=O)N[C@@H](CCCNC(=N)N)C(=O)N[C@@H](Cc1c[nH]c2ccccc12)C(=O)N[C@@H](CCCCN)C(=O)N[C@@H](Cc1ccccc1)C(=O)N[C@@H](CCCCN)C(=O)NCC(=O)N[C@@H](CCCCN)C(=O)N[C@@H](Cc1ccccc1)C(=O)N[C@@H](Cc1c[nH]c2ccccc12)C(=O)N[C@@H](Cc1ccccc1)C(=O)N[C@@H](Cc1c[nH]c2ccccc12)C(=O)NCC(N)=O` [Pep19-2.5, reference compound] registered an MBC value in series [1] of over 64 µg/mL. The MIC value in series [2] is listed as over 64.
On to GKKYRRFRWKFKGK-NH2 [Pep19-short], for which the MBC value in series [1] was found to be 64 µg/mL. Besides, in series [2], the MIC value came to 64. Also, the results for the MIC in series [2], in series [3] and in series [6] were 64 µg/mL, over 64 µg/mL and over 64 µg/mL, respectively. In series [7], the “speed of elimination compared among the peptides” value is “no difference in the elimination time”.
Regarding bacitracin, in series [8] (0.5 × MIC, 0 to 8 h, n = 3), the “change in number of cfu/mL” value is “only a small decrease in the number of cfu/mL”. For the same compound, the mode of action result in series [8] (2 × MIC, n=3) is listed as “bacteriostatic mode of action”; in series [8] (4 × MIC, n = 3), “bactericidal activity”. For the same compound, the “time until no detectable cfu” value in series [8] (4 × MIC, 1 × 10^6 cfu/mL in MHB II, 37 °C, n = 3) is reported as 8 h.

The record behind these values is paper PMC7760514, “Fatty Acid Conjugation Leads to Length-Dependent Antimicrobial Activity of a Synthetic Antibacterial Peptide (Pep19-4LF)” (Antibiotics, 2020).
